In patent publication EP1638538B1, “DOSAGE FORM” (priority 2003, dated 2005):

Assay: Time for complete absorption of sunflower oil into compressed sporopollenin tablets with an absorption aiding liquid
Format: physicochemical
Experimental: Sporopollenin (0.5 g) tablets were prepared by compressing in a 16 mm die at a pressure of 10 tonnes for 2 min. […] The resulting powder was dried in a dessicator over P2O5 in oven at 50°C until constant weight.

[1] = sunflower oil (1 ml) + liquid (1 ml), 0.5 g tablet, room temperature

Compound	Time for complete absorption [1]	Time for complete absorption (sunflower oil, repeated at 40 °C)
CCOC(C)=O [ethyl acetate]	50 s	
CCO [ethanol]	20 s	12 s
ClCCl [dichloromethane]	35 s	
CC#N [acetonitrile]	20 s	
